Experimental data taken from ChEMBL document CHEMBL3352421, “Development of a new benzophenone-diketopiperazine-type potent antimicrotubule agent possessing a 2-pyridine structure” (ACS Med Chem Lett, 2014).
Activity calls are given as the source filed them. The rule behind the calls is not given here.

Tests used:
HT-29 [1] = assay: Cytotoxicity against human HT-29 cells after 48 hrs by XTT/PMS assay; assay type: functional, cell-based; settings: HT-29, 48 h
Tubulin [2] = target: T1, Tubulin (Sus scrofa, UniProt P02554+P02550); assay: Binding affinity to porcine tubulin incubated for 1 hr by spectrofluorometry; assay type: protein assay
Tubulin [3] = target: T1, Tubulin; assay: Inhibition of porcine tubulin polymerization by spectrophotometry; assay type: protein assay
HeLa [4] = assay: Inhibition of mitotic spindle formation in human HeLa cells at 7 and 30 nM by DAPI staining
HeLa [5] = assay: Induction of multipolar spindle formation in human HeLa cells at 20 to 30 nM by DAPI staining; assay type: functional, cell-based
A549 [6] = assay: Cytotoxicity against human A549 cells after 48 hrs by WST8 assay; assay type: functional, cell-based; settings: A549, 48 h
HeLa [7] = assay: Cytotoxicity against human HeLa cells after 48 hrs by WST8 assay; assay type: functional, cell-based
[8] = Cytotoxicity against human PMNC cells after 48 hrs by WST1 assay; assay type: functional, cell-based
HT-29 [9] = assay: Selectivity index, ratio of IC50 for human NHSF46 cells to IC50 for human HT-29 cells; assay type: functional
[10] = Cytotoxicity against human NHSF46 cells after 48 hrs by XTT/PMS assay; assay type: cell-based; settings: NHSF46, 48 h
HeLa [11] = assay: Potency index, ratio of IC50 for Plinabulin to IC50 for test compound against human HeLa cells after 48 hrs by WST8 assay; assay type: functional
HeLa [12] = assay: Induction of multipolar spindle formation in human HeLa cells at 7 nM by DAPI staining; assay type: functional, cell-based
HT-29 [13] = assay: Selectivity index, ratio of IC50 for human PMNC cells to IC50 for human HT-29 cells; assay type: functional
A549 [14] = assay: Potency index, ratio of IC50 for Plinabulin to IC50 for test compound against human A549 cells after 48 hrs by WST8 assay; assay type: functional

`CC(=O)N1CC(=O)N/C(=C\c2cccc(C(=O)c3ccccc3)c2)C1=O` showed an IC50 (HT-29 [1]) of 8800 nM.
For `CC(C)(C)c1[nH]cnc1/C=c1\[nH]c(=O)/c(=C/c2ccccc2)[nH]c1=O` [PLINABULIN], the Kd (Tubulin [2]) was 1000 nM, the IC50 (Tubulin [3]) was 1800 nM and the inhibition (HeLa [4]) was “Active”. For the same compound, the Activity (HeLa [5]) was “Active”, the IC50 (A549 [6]) was 35.7 nM and the IC50 (HeLa [7]) was 20.6 nM.
For `O=C(c1ccccc1)c1cccc(/C=c2\[nH]c(=O)/c(=C/c3cccnc3)[nH]c2=O)c1`, the IC50 (HT-29 [1]) was greater than 1000 nM.
Compound `O=C(c1ccccc1)c1cccc(/C=c2\[nH]c(=O)/c(=C/c3ccccc3)[nH]c2=O)c1` has an IC50 (HT-29 [1]) of 94.3 nM.
`O=C(c1ccccc1)c1cccc(/C=c2\[nH]c(=O)/c(=C/c3ncccn3)[nH]c2=O)c1` gave an IC50 (HT-29 [1]) of 75.3 nM.
`O=C(c1ccccc1)c1cccc(/C=c2\[nH]c(=O)/c(=C/c3ccncc3)[nH]c2=O)c1` gave an IC50 (HT-29 [1]) greater than 1000 nM.
In the case of `Cc1[nH]cnc1/C=c1\[nH]c(=O)/c(=C/c2cccc(C(=O)c3ccccc3)c2)[nH]c1=O`, the IC50 (HT-29 [1]) is reported as 15 nM.
In the case of `O=C(c1ccccc1)c1cccc(/C=c2\[nH]c(=O)/c(=C/c3ccccn3)[nH]c2=O)c1`, the IC50 [8] is reported as 481 nM, the Kd (Tubulin [2]) is reported as 1300 nM and the “Ratio IC50” value (HT-29 [9]) is reported as 10. For the same compound, the IC50 (Tubulin [3]) was 1200 nM, the IC50 [10] was 77 nM and the inhibition (HeLa [4]) was “Active”. For the same compound, the “Ratio IC50” value (HeLa [11]) was 3.8, the IC50 (A549 [6]) was 14.2 nM and the IC50 (HT-29 [1]) was 7 nM. For the same compound, the Activity (HeLa [12]) was “Active”, the IC50 (HeLa [7]) was 5.4 nM and the “Ratio IC50” value (HT-29 [13]) was 10. The “Ratio IC50” value (A549 [14]) was 2.5.
For `O=C1CNC(=O)/C(=C/c2cccc(C(=O)c3ccccc3)c2)N1`, the IC50 (HT-29 [1]) was greater than 20000 nM.
